# “And” between values parts separate entries of the source, which are not always exact repeats. Equal entries are not always repeated. “Also recorded” adds a separate entry of the source. Where two headings read alike, the source gives them in different places.
# Assays:
# Assay in all cases: GloSensor cAMP assay, antagonism of PGE2-induced cAMP
# Assay type in all cases: cell-based
# EP4 V320A = target: T1, EP4 V320A (Homo sapiens, UniProt P35408, V320A); details: for cAMP activity (∆pIC50 from EP4 WT): TG6-129, V320A
# T1 construct: The full-length EP2 or EP4 was cloned into the pcDNA3.1 vector (Invitrogen), incorporating an N-terminal FLAG tag; expressed in transfected cells; host or cells: AD293
# T1 sequence (P35408 whole entry V320A): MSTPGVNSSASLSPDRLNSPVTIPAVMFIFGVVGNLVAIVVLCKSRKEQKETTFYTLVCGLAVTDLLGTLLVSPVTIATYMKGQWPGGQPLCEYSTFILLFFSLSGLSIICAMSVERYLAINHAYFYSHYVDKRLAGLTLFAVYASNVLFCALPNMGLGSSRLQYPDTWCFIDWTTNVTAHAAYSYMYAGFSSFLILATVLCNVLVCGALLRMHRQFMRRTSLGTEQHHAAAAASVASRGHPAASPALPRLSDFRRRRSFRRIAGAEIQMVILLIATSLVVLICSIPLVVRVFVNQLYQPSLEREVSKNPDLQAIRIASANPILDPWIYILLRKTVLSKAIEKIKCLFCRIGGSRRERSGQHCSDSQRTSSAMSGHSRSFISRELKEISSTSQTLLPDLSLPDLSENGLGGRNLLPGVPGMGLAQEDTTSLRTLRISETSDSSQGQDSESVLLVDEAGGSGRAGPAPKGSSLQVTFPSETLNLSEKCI
# Experimental: (§1) The full-length EP2 or EP4 was cloned into the pcDNA3.1 vector (Invitrogen), incorporating an N-terminal FLAG tag. AD293 cells were seeded in six-well plates containing DMEM supplemented with 10% dialyzed FBS 1 day prior to transfection. Following overnight growth, cells were transfected with a 1:1 ratio of receptor construct and GloSensor22F cAMP biosensor (Promega) plasmids.
# (§2) Twenty-four hours post-transfection, the cells were transferred to CO2-independent media containing 2% GloSensor cAMP Reagent (Promega) and distributed into 384-well assay plates at a density of 4000 cells per well in 10 μL. […] The plates were then incubated at 37 °C for an additional hour before luminescence measurements were taken using an EnVision plate reader.
# (§3) Data analysis was performed using GraphPad Prism software v8.0.1. A nonlinear regression analysis, employing a sigmoidal dose–response model, was conducted to determine the Emax values and half-maximum inhibitory concentrations (IC50) for each compound tested.
# EP4 V72A = target: T2, EP4 V72A (Homo sapiens, UniProt P35408, V72A)
# T2 construct: The full-length EP2 or EP4 was cloned into the pcDNA3.1 vector; FLAG (N); expressed in transfected cells; host or cells: AD293 cells
# T2 sequence (P35408 whole entry V72A): as the sequence (P35408 whole entry V320A) above, with V72A, A320V counted along it
# Experimental: as §1, §2, §3
# EP4 WT = target: T3, EP4 WT (Homo sapiens, UniProt P35408); details: for remaining activity at 100 µM / remaining activity at […] / remaining activity at 0.1585 µM / remaining activity at 0.03236 µM / remaining activity at 0.006457 µM / remaining activity at 0.001288 µM: 1 h
# T3 construct: The full-length EP2 or EP4 was cloned into the pcDNA3.1 vector; FLAG (N); expressed in transfected cells; host or cells: AD293 cells
# T3 sequence (P35408 whole entry): as the sequence (P35408 whole entry V320A) above, with A320V counted along it
# Experimental: as §1, §2, §3
# EP2 WT = EP2 WT (Homo sapiens, UniProt P43116); parameters: The full-length EP2 or EP4 was cloned into the pcDNA3.1 vector; FLAG (N); expressed in transfected cells; host or cells: AD293 cells
# Sequence of EP2 WT (P43116 whole entry): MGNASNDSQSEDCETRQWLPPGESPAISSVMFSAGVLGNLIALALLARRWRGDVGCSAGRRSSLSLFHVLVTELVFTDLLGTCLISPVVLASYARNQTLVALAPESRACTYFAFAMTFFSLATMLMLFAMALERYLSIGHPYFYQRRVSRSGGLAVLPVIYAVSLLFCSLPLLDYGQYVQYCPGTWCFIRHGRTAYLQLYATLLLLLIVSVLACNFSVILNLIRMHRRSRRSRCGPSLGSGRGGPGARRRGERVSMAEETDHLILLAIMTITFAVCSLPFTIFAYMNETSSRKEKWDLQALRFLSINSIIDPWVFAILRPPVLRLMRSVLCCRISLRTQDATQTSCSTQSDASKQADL
# Experimental: as §1, §2, §3
# [1] = 1 h, TG6-129 log([M]) -7.49, read-out: % cAMP activity (normalized to WT)
# [2] = 1 h, TG6-129 log([M]) -8.19, read-out: % cAMP activity (normalized to WT)
# [3] = 1 h, TG6-129 log([M]) -8.89, read-out: % cAMP activity (normalized to WT)
# [4] = TG6-129, WT, single experiments 1st-3rd
structure (smiles),measurement,setting,value
CCc1nnc(NS(=O)(=O)c2ccc(NC(=S)NC(=O)/C=C/c3ccc(F)cc3)cc2)s1 [TG6-129],remaining activity at 0.03236 µM,EP4 V320A; [1],66.5%
same,remaining activity at 0.006457 µM,EP4 V320A; [2],70.4%
same,remaining activity at 0.001288 µM,EP4 V320A; [3],68.8%
same,ΔpIC50,"EP4 V320A; PGE2 0.5 nM, pIC50 mutant - pIC50 WT, mean",-0.11 ± 0.05
same,cAMP activity (∆pIC50 from EP4 WT),EP4 V320A; Mean,-0.111
same,cAMP activity (∆pIC50 from EP4 WT),EP4 V320A; single experiments 1st-3rd,-0.105 and -0.202 and -0.027
same,IC50,EP4 V72A,18.2 µM
same,remaining activity at 100 µM,"EP4 V72A; 1 h, TG6-129 log([M]) -4.00, read-out: % cAMP activity (normalized to WT)",12.5%
same,remaining activity at […],"EP4 V72A; 1 h, TG6-129 log([M]) -4.70, read-out: % cAMP activity (normalized to WT)",22.1%
same,remaining activity at […],"EP4 V72A; 1 h, TG6-129 log([M]) -5.40, read-out: % cAMP activity (normalized to WT)",49.5%
same,remaining activity at […],"EP4 V72A; 1 h, TG6-129 log([M]) -6.10, read-out: % cAMP activity (normalized to WT)",51.9%
same,remaining activity at 0.1585 µM,"EP4 V72A; 1 h, TG6-129 log([M]) -6.80, read-out: % cAMP activity (normalized to WT)",46%
same,remaining activity at 0.03236 µM,EP4 V72A; [1],55.5%
same,remaining activity at 0.006457 µM,EP4 V72A; [2],65.3%
same,remaining activity at 0.001288 µM,EP4 V72A; [3],49%
same,cAMP activity (∆pIC50 from EP4 WT),"EP4 V72A; TG6-129, V72A, Mean",-0.291
same,remaining activity at 100 µM,"EP4 WT; TG6-129 log([M]) -4.00, read-out: % cAMP activity (normalized to WT)",15.1%
same,remaining activity at […],"EP4 WT; TG6-129 log([M]) -4.70, read-out: % cAMP activity (normalized to WT)",25.9%
same,remaining activity at […],"EP4 WT; TG6-129 log([M]) -5.40, read-out: % cAMP activity (normalized to WT)",86.4%
same,remaining activity at […],"EP4 WT; TG6-129 log([M]) -6.10, read-out: % cAMP activity (normalized to WT)",94.7%
same,remaining activity at 0.1585 µM,"EP4 WT; TG6-129 log([M]) -6.80, read-out: % cAMP activity (normalized to WT)",90.5%
same,remaining activity at 0.03236 µM,"EP4 WT; TG6-129 log([M]) -7.49, read-out: % cAMP activity (normalized to WT)",87.9%
same,remaining activity at 0.006457 µM,"EP4 WT; TG6-129 log([M]) -8.19, read-out: % cAMP activity (normalized to WT)",104%
same,remaining activity at 0.001288 µM,"EP4 WT; TG6-129 log([M]) -8.89, read-out: % cAMP activity (normalized to WT)",109%
same,remaining activity at 100 µM,"EP4 WT; read-out: % cAMP activity EP4 (normalized to Grapiprant), ligand log([M]) -4.00, single experiments 1st-3rd, Fig. S1A",15.1%
same,remaining activity at […],"EP4 WT; read-out: % cAMP activity EP4 (normalized to Grapiprant), ligand log([M]) -4.70, single experiments 1st-3rd, Fig. S1A",25.9%
same,remaining activity at […],"EP4 WT; read-out: % cAMP activity EP4 (normalized to Grapiprant), ligand log([M]) -5.40, single experiments 1st-3rd, Fig. S1A",86.4%
same,remaining activity at […],"EP4 WT; read-out: % cAMP activity EP4 (normalized to Grapiprant), ligand log([M]) -6.10, single experiments 1st-3rd, Fig. S1A",94.7%
same,remaining activity at 0.1585 µM,"EP4 WT; read-out: % cAMP activity EP4 (normalized to Grapiprant), ligand log([M]) -6.80, single experiments 1st-3rd, Fig. S1A",90.5%
same,remaining activity at 0.03236 µM,"EP4 WT; read-out: % cAMP activity EP4 (normalized to Grapiprant), ligand log([M]) -7.49, single experiments 1st-3rd, Fig. S1A",87.9%
same,remaining activity at 0.006457 µM,"EP4 WT; read-out: % cAMP activity EP4 (normalized to Grapiprant), ligand log([M]) -8.19, single experiments 1st-3rd, Fig. S1A",104%
same,remaining activity at 0.001288 µM,"EP4 WT; read-out: % cAMP activity EP4 (normalized to Grapiprant), ligand log([M]) -8.89, single experiments 1st-3rd, Fig. S1A",109%
same,cAMP activity (∆pIC50 from EP4 WT),EP4 WT; [4],0.138 and 0.074 and -0.140
same,IC50,EP2 WT,0.0813 µM
same,remaining activity at 0.1 µM,"EP2 WT; 1 h, TG6-129 log([M]) -7, read-out: % cAMP activity (normalized to WT)",40.1%
same,remaining activity at 0.01 µM,"EP2 WT; 1 h, TG6-129 log([M]) -8, read-out: % cAMP activity (normalized to WT)",94.7%
same,remaining activity at 0.001 µM,"EP2 WT; 1 h, TG6-129 log([M]) -9, read-out: % cAMP activity (normalized to WT)",104%
same,remaining activity at 0.0001 µM,"EP2 WT; 1 h, TG6-129 log([M]) -10, read-out: % cAMP activity (normalized to WT)",94.6%
same,remaining activity at 10 pM,"EP2 WT; 1 h, TG6-129 log([M]) -11, read-out: % cAMP activity (normalized to WT)",102%
same,remaining activity at 1 pM,"EP2 WT; 1 h, TG6-129 log([M]) -12, read-out: % cAMP activity (normalized to WT)",94.1%
same,remaining activity at 1 µM,"EP2 WT; 1 h, ligand log([M]) -6, single experiments 1st-3rd, Fig. S7B, read-out: % cAMP activity (normalized to WT)",3.11%
same,remaining activity at 0.1 µM,"EP2 WT; 1 h, ligand log([M]) -7, single experiments 1st-3rd, Fig. S7B, read-out: % cAMP activity (normalized to WT)",42.8%
same,remaining activity at 0.01 µM,"EP2 WT; 1 h, ligand log([M]) -8, single experiments 1st-3rd, Fig. S7B, read-out: % cAMP activity (normalized to WT)",80.3%
same,remaining activity at 0.001 µM,"EP2 WT; 1 h, ligand log([M]) -9, single experiments 1st-3rd, Fig. S7B, read-out: % cAMP activity (normalized to WT)",95.4%
same,remaining activity at 0.0001 µM,"EP2 WT; 1 h, ligand log([M]) -10, single experiments 1st-3rd, Fig. S7B, read-out: % cAMP activity (normalized to WT)",93.9%
same,remaining activity at 10 pM,"EP2 WT; 1 h, ligand log([M]) -11, single experiments 1st-3rd, Fig. S7B, read-out: % cAMP activity (normalized to WT)",103%
same,remaining activity at 1 pM,"EP2 WT; 1 h, ligand log([M]) -12, single experiments 1st-3rd, Fig. S7B, read-out: % cAMP activity (normalized to WT)",110%
same,remaining activity at 0.1 µM,"EP2 WT; 1 h, read-out: % cAMP activity on EP2 (normalized to PF-04418948), ligand log([M]) -7, single experiments 1st-3rd, Fig. S1A",46%
same,remaining activity at 0.01 µM,"EP2 WT; 1 h, read-out: % cAMP activity on EP2 (normalized to PF-04418948), ligand log([M]) -8, single experiments 1st-3rd, Fig. S1A",84.5%
same,remaining activity at 0.001 µM,"EP2 WT; 1 h, read-out: % cAMP activity on EP2 (normalized to PF-04418948), ligand log([M]) -9, single experiments 1st-3rd, Fig. S1A",100%
same,remaining activity at 0.0001 µM,"EP2 WT; 1 h, read-out: % cAMP activity on EP2 (normalized to PF-04418948), ligand log([M]) -10, single experiments 1st-3rd, Fig. S1A",98.6%
same,remaining activity at 10 pM,"EP2 WT; 1 h, read-out: % cAMP activity on EP2 (normalized to PF-04418948), ligand log([M]) -11, single experiments 1st-3rd, Fig. S1A",108%
same,remaining activity at 1 pM,"EP2 WT; 1 h, read-out: % cAMP activity on EP2 (normalized to PF-04418948), ligand log([M]) -12, single experiments 1st-3rd, Fig. S1A",115%
same,cAMP activity (∆pIC50 from EP2 WT),EP2 WT; [4],0.065 and 0.064 and -0.014
same,antagonism profile EP2 versus EP4 (in words),"EP2 WT; cAMP accumulation assay upon PGE2 stimulation, Appendix Fig. S1A",dual antagonist that preferentially antagonizes EP2; also recorded: preferential potency toward EP2
same,cAMP activity (∆pIC50 from EP2 WT),"EP2 WT; single experiments 1st-3rd, Appendix Fig. S7A",0.111 and -0.076 and -0.052

# Source: publication PMC12669672, “Structural insights into selective and dual antagonism of EP2 and EP4 prostaglandin receptors” (The EMBO Journal, 2025)
